What follows are compounds tested against GluA1o-γ8 (Homo sapiens (Human), UniProt P42261+Q8WXS5) (assay: Calcium flux assay (FLIPR), inhibition of TARP γ8 dependent AMPA receptor activity). Details: HEK293 cells stably expressing GRIA1o-CACNG8 fusion construct; calcium flux following 15 μM glutamate; negative log of IC50 in molar.
Format: cell-based
Text: This assay was used to test compounds for their ability to inhibit TARP γ8 dependent AMPA receptor activity. The AMPA receptor is a non-selective cation channel activated by glutamate. Ionotropic glutamate receptors normally desensitize too rapidly to allow detectable calcium influx in a FLIPR assay (Strange et al. (2006). “Functional characterisation of homomeric ionotropic glutamate receptors GluR1-GluR6 in a fluorescence-based high throughput screening assay.” Comb Chem High Throughput Screen 9(2): 147-158). But, this desensitization is incomplete, and a substantial steady-state current remains in the sustained presence of glutamate (Cho et al. (2007). “Two families of TARP isoforms that have distinct effects on the kinetic properties of AMPA receptors and synaptic currents.” Neuron 55(6): 890-904).
An in vitro assay was used to determine the potency of test compounds as inhibitors of the glutamate response of the channel formed by GluA1o-γ8. To ensure a 1:1 stoichiometry of GluA1o and γ8 subunits in the expressed channel, a fusion of the cDNAs for GRIA1o and CACNG8 was used. Following Shi et al (2009) “The stoichiometry of AMPA receptors and TARPs varies by neuronal cell type.” Neuron 62(5): 633-640), the C-terminus of the cDNA for GRIA1o was fused to the N-terminus of the cDNA for γ8. The linker sequence was QQQQQQQQQQEFAT. Channels expressed with this construct appear to have similar properties to channels formed by co-expression of GRIA1o with an excess of CACNG8 (Shi et al. 2009). A clonal cell line in HEK293 cells stably expressing this construct, with a geneticin selection marker, was generated for use in this assay.
Cell expressing the GRIA1o-CACNG8 fusion construct were grown in a monolayer in 96- or 384-well microtiter plates. They were washed with assay buffer (135 mM NaCl, 4 mM KCl, 3 mM CaCl2, 1 mM MgCl2, 5 mM glucose, 10 mM HEPES, pH 7.4, 300 mOs) using a Biotek EL405 plate washer. The cells were then loaded with a calcium-sensitive dye (Calcium-5 or Calcium-6, Molecular Devices) and the test compounds at a range of concentrations. Calcium flux following the addition of 15 μM glutamate was monitored using a Molecular Devices FLIPR Tetra.
The fluorescence in each well was normalized to the fluorescence of negative and positive control wells. The negative control wells had no added compounds, and the positive control wells had been incubated with 10 μM CP465022 (a non-subtype-selective AMPA receptor antagonist) (Lazzaro et al. (2002). “Functional characterization of CP-465,022, a selective, noncompetitive AMPA receptor antagonist.” Neuropharmacology 42(2): 143-153). The responses to glutamate as functions of the test compound concentrations were fitted to a four-parameter logistic function. The fitted parameter corresponding to the midpoint was taken to be the potency of inhibition of the compound. The data in Table 4 below illustrates the observed potency for the compounds described herein. pIC50 refers to the negative log of the IC50 in molar.

Sequence of GluA1o-γ8 (P42261 other isoform, or with tags, fused parts or gaps): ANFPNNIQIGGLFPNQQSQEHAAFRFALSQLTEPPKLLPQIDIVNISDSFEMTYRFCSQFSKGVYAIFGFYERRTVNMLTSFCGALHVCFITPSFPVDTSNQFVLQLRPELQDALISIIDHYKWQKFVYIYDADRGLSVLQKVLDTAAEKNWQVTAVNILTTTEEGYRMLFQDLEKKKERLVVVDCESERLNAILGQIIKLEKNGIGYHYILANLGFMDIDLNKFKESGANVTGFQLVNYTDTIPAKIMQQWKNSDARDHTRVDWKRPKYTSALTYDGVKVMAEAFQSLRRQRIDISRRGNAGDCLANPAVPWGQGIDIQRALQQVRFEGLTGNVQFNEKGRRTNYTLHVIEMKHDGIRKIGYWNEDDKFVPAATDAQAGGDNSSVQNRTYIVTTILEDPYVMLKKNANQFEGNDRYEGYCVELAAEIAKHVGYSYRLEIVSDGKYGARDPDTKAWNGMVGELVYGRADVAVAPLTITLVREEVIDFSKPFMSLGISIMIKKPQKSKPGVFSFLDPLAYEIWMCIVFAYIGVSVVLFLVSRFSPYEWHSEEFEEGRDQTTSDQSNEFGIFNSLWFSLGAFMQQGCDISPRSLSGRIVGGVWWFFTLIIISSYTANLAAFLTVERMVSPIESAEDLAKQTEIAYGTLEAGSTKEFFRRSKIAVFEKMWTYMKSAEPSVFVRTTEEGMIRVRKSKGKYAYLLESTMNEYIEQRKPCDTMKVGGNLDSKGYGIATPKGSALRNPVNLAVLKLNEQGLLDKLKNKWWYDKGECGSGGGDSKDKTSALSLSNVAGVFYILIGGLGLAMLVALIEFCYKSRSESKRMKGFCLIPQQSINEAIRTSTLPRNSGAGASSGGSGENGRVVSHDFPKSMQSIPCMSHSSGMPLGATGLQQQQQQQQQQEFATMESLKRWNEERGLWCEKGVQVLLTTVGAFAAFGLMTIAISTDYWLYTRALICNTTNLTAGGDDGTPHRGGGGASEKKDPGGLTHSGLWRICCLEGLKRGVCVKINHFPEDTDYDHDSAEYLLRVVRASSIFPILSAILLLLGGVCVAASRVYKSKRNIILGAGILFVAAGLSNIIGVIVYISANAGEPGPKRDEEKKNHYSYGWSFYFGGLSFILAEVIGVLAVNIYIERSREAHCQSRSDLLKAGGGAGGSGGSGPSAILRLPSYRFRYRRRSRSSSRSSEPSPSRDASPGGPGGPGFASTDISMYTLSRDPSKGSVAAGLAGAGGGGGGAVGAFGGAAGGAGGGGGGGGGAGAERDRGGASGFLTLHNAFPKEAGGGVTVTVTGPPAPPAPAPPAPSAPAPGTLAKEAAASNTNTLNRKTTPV

Row | SMILES | pIC50 | IC50 [nM]
1 | FC(F)c1nc2c(-c3cc(Cl)c4[nH]ncc4c3)c(C(F)(F)F)ccn2n1 [Example 1, 8-(7-Chloro-1H-indazol-5-yl)-2-(difluoromethyl)-7-(trifluoromethyl)-[1,2,4]triazolo[1,5-a]pyridine] | 9.5 | 
2 | O=c1[nH]c2ccc(-c3c(C(F)(F)F)ccn4nc(C(F)(F)F)nc34)cc2s1 [Example 3, 6-(2,7-Bis(trifluoromethyl)-[1,2,4]triazolo[1,5-a]pyridin-8-yl)benzo[d]thiazol-2(3H)-one] | 8.1 | 
3 | Cc1cc(-c2c(-c3ccc(F)cc3)ccn3nc(C4CCC4)nc23)cc2cn[nH]c12 [Example 4, 2-Cyclobutyl-7-(4-fluorophenyl)-8-(7-methyl-1H-indazol-5-yl)-[1,2,4]triazolo[1,5-a]pyridine] | 10.6 | 
4 | O=c1[nH]c2ccc(-c3c(-c4ccc(F)cc4)ccn4nc(C(F)(F)F)nc34)cc2s1 [Example 5, 6-(7-(4-Fluorophenyl)-2-(trifluoromethyl)-[1,2,4]triazolo[1,5-a]pyridin-8-yl)benzo[d]thiazol-2(3H)-one] | 9.6 | 
5 | Cc1cc(-c2c(-c3ccc(F)cc3)ccn3nc(C4CCCC4)nc23)cc2cn[nH]c12 [Example 9, 2-Cyclopentyl-7-(4-fluorophenyl)-8-(7-methyl-1H-indazol-5-yl)-[1,2,4]triazolo[1,5-a]pyridine] | 10.8 | 
6 | Cc1cc(-c2c(C)ccn3cc(C(F)(F)F)nc23)cc2c1NC(=O)C2 [Example 11, 7-Methyl-5-[7-methyl-2-(trifluoromethyl)imidazo[1,2-a]pyridin-8-yl]indolin-2-one] |  | 1
7 | Fc1ccc(-c2ccn3cc(C(F)(F)F)nc3c2-c2ccc3[nH]ncc3c2)cc1 [Example 12, 5-(7-(4-Fluorophenyl)-2-(trifluoromethyl)imidazo[1,2-a]pyridin-8-yl)-1H-indazole] |  | 3.16
8 | FC(F)(F)c1cn2cnc(C(F)(F)F)c(-c3cc(Cl)c4[nH]ncc4c3)c2n1 [Example 13, 8-(7-Chloro-1H-indazol-5-yl)-2,7-bis(trifluoromethyl)imidazo[1,2-c]pyrimidine] |  | 0.316
9 | FC(F)c1cn2cnc(C(F)(F)F)c(-c3cc(Cl)c4[nH]ncc4c3)c2n1 [Example 14, 8-(7-Chloro-1H-indazol-5-yl)-2-(difluoromethyl)-7-(trifluoromethyl)imidazo[1,2-c]pyrimidine] |  | 0.398
10 | O=C1Cc2cc(-c3c(C(F)(F)F)ccn4nc(C(F)F)nc34)cc(Cl)c2N1 [Example 17, 7-Chloro-5-(2-(difluoromethyl)-7-(trifluoromethyl)-[1,2,4]triazolo[1,5-a]pyridin-8-yl)indolin-2-one] | 8.9 | 
11 | Cc1cc(-c2c(C(F)(F)F)ccn3nc(C(F)F)nc23)cc2c1NC(=O)C2 [Example 18, 7-Methyl-5-(2-(difluoromethyl)-7-(trifluoromethyl)-[1,2,4]triazolo[1,5-a]pyridin-8-yl)indolin-2-one] | 8.6 | 
12 | O=C1Cc2cc(-c3c(C(F)(F)F)ccn4nc(C(F)(F)F)nc34)cc(Cl)c2N1 [Example 21, 5-(2,7-Bis(trifluoromethyl)-[1,2,4]triazolo[1,5-a]pyridin-8-yl)-7-chloroindolin-2-one] | 9.5 | 
13 | Cc1cc(-c2c(C(F)(F)F)ccn3nc(C(F)(F)F)nc23)cc2c1NC(=O)C2 [Example 22, 5-(2,7-Bis(trifluoromethyl)-[1,2,4]triazolo[1,5-a]pyridin-8-yl)-7-methylindolin-2-one] | 9.1 | 
14 | O=C1Cc2cc(-c3c(C(F)F)ccn4nc(C(F)(F)F)nc34)cc(Cl)c2N1 [Example 25, 7-Chloro-5-(7-(difluoromethyl)-2-(trifluoromethyl)-[1,2,4]triazolo[1,5-a]pyridin-8-yl)indolin-2-one] | 9.2 | 

Second part, the compound after the results:

Row | pIC50 | IC50 [nM] | SMILES
15 | 8.5 |  | Cc1cc(-c2c(Cl)ccn3nc(C(F)(F)F)nc23)cc2cn[nH]c12 [Example 2, 7-Chloro-8-(7-methyl-1H-indazol-5-yl)-2-(trifluoromethyl)-[1,2,4]triazolo[1,5-a]pyridine]
16 | 10.1 |  | Cc1cc(-c2c(C3CCCC3)ccn3nc(C(F)(F)F)nc23)cc2cn[nH]c12 [Example 6, 7-Cyclopentyl-8-(7-methyl-1H-indazol-5-yl)-2-(trifluoromethyl)-[1,2,4]triazolo[1,5-a]pyridine]
17 | 9.5 |  | Cc1cc(-c2c(N3CCC3)ccn3nc(C(F)(F)F)nc23)cc2cn[nH]c12 [Example 7, 7-(Azetidin-1-yl)-8-(7-methyl-1H-indazol-5-yl)-2-(trifluoromethyl)-[1,2,4]triazolo[1,5-a]pyridine]
18 | 8.6 |  | Cc1cc(-c2c(N3CC(F)C3)ccn3nc(C(F)(F)F)nc23)cc2cn[nH]c12 [Example 8, 7-(3-Fluoroazetidin-1-yl)-8-(7-methyl-1H-indazol-5-yl)-2-(trifluoromethyl)-[1,2,4]triazolo[1,5-a]pyridine]
19 | 7.7 |  | Cc1cc(-c2c(C#N)ccn3nc(C(F)(F)F)nc23)cc2cn[nH]c12 [Example 10, 8-(7-Methyl-1H-indazol-5-yl)-2-(trifluoromethyl)-[1,2,4]triazolo[1,5-a]pyridine-7-carbonitrile]
20 |  | 2 | Cc1cc(-c2c(C(F)(F)F)ncn3cc(C(F)F)nc23)cc2cn[nH]c12 [Example 15, 2-(Difluoromethyl)-8-(7-methyl-1H-indazol-5-yl)-7-(trifluoromethyl)imidazo[1,2-c]pyrimidine]
21 | 9.0 |  | Cc1cc(-c2c(C(F)(F)F)ccn3nc(C(F)F)nc23)cc2cn[nH]c12 [Example 16, 8-(7-Methyl-1H-indazol-5-yl)-2-(difluoromethyl)-7-(trifluoromethyl)-[1,2,4]triazolo[1,5-a]pyridine]
22 | 9.6 |  | FC(F)(F)c1nc2c(-c3cc(Cl)c4[nH]ncc4c3)c(C(F)(F)F)ccn2n1 [Example 19, 8-(7-Chloro-1H-indazol-5-yl)-2,7-bis(trifluoromethyl)-[1,2,4]triazolo[1,5-a]pyridine]
23 | 9.3 |  | Cc1cc(-c2c(C(F)(F)F)ccn3nc(C(F)(F)F)nc23)cc2cn[nH]c12 [Example 20, 8-(7-Methyl-1H-indazol-5-yl)-2,7-bis(trifluoromethyl)-[1,2,4]triazolo[1,5-a]pyridine]
24 | 9.4 |  | FC(F)c1ccn2nc(C(F)(F)F)nc2c1-c1cc(Cl)c2[nH]ncc2c1 [Example 23, 8-(7-Chloro-1H-indazol-5-yl)-7-(difluoromethyl)-2-(trifluoromethyl)-[1,2,4]triazolo[1,5-a]pyridine]
25 | 9.2 |  | Cc1cc(-c2c(C(F)F)ccn3nc(C(F)(F)F)nc23)cc2cn[nH]c12 [Example 24, 8-(7-Methyl-1H-indazol-5-yl)-7-(difluoromethyl)-2-(trifluoromethyl)-[1,2,4]triazolo[1,5-a]pyridine]
26 | 9.0 |  | Cc1cc(-c2c(C(F)F)ccn3nc(C(F)(F)F)nc23)cc2c1NC(=O)C2 [Example 26, 7-Methyl-5-(7-(difluoromethyl)-2-(trifluoromethyl)-[1,2,4]triazolo[1,5-a]pyridin-8-yl)indolin-2-one]
27 | 8.4 |  | Cc1ccn2nc(C(F)(F)F)nc2c1-c1cc(C)c2[nH]ncc2c1 [Example 27, 7-Methyl-8-(7-methyl-1H-indazol-5-yl)-2-(trifluoromethyl)-[1,2,4]triazolo[1,5-a]pyridine]
28 | 9.1 |  | CCc1ccn2nc(C(F)(F)F)nc2c1-c1cc(C)c2[nH]ncc2c1 [Example 28, 7-Ethyl-8-(7-methyl-1H-indazol-5-yl)-2-(trifluoromethyl)-[1,2,4]triazolo[1,5-a]pyridine]

From patent publication US10155769B2, “Fused azaheterocyclic compounds and their use as AMPA receptor modulators” (Janssen Pharmaceutica NV, priority 2016, dated 2018)
